Target: CDK2 (human) (UniProt P24941)
Assay: Enzyme Assay

| SMILES | IC50 [nM] |
| --- | --- |
| CCOC(=O)c1cc(-c2csc(CS(=O)(=O)c3ccccc3)n2)c(=O)[nH]c1CC | < 500 |
| CCOC(=O)c1cc(-c2csc(-c3ccnc(NCCN(CC)CC)c3)n2)c(=O)[nH]c1C | < 500 |
| CCOC(=O)c1cc(-c2csc(-c3ccncc3)n2)c(=O)[nH]c1C | < 500 |
| CCOC(=O)c1cc(-c2csc(-c3ccnc(NCc4ccccc4)c3)n2)c(=O)[nH]c1C | < 500 |
| CCCc1[nH]c(=O)c(-c2csc(-c3ccncc3)n2)cc1C(=O)OCC | < 500 |
| CCOC(=O)c1cc(-c2csc(CS(=O)(=O)c3ccccc3)n2)c(=O)[nH]c1COCc1ccccc1 | < 500 |
| CCOC(=O)c1cc(-c2csc(C(C)(C)S(=O)(=O)c3ccccc3)n2)c(=O)[nH]c1C | < 500 |
| CCOC(=O)c1cc(-c2csc(CS(=O)(=O)c3ccc(Cl)cc3)n2)c(=O)[nH]c1C | < 500 |
| CCOC(=O)c1cc(-c2csc(CS(=O)(=O)c3ccccc3)n2)c(=O)[nH]c1C1CC1 | < 500 |
| CCOC(=O)c1cc(-c2csc(CS(=O)(=O)c3ccccn3)n2)c(=O)[nH]c1C | < 500 |
| CCOC(=O)c1cc(-c2csc(-c3ccnc(NCCNC(C)=O)c3)n2)c(=O)[nH]c1C | < 500 |
| CCOC(=O)c1cc(-c2csc(CS(=O)(=O)c3cccs3)n2)c(=O)[nH]c1C | < 500 |
| CCOC(=O)c1cc(-c2csc(CS(=O)(=O)c3cccs3)n2)c(=O)[nH]c1C(C)C | < 500 |
| CCOC(=O)c1cc(-c2csc(-c3ccnc(NCc4ccccn4)c3)n2)c(=O)[nH]c1C | < 500 |
| Cc1[nH]c(=O)c(-c2csc(-c3ccncc3)n2)cc1Br | < 500 |
| CCOC(=O)c1cc(-c2csc(-c3ccnc(NCc4ccco4)c3)n2)c(=O)[nH]c1C | < 500 |
| CCOC(=O)c1cc(-c2csc(-c3ccnc(NCC(N)=O)c3)n2)c(=O)[nH]c1C | < 500 |
| CCOC(=O)c1cc(-c2csc(-c3ccnc(NCC4CCCC4)c3)n2)c(=O)[nH]c1C | < 500 |
| CCc1[nH]c(=O)c(-c2csc(-c3ccncc3)n2)cc1C(=O)OCCN1CCCC1 | < 500 |
| CCOC(=O)c1cc(-c2csc(-c3ccncc3)n2)c(=O)[nH]c1CC | < 500 |
| CCc1ccc(-c2csc(-c3ccncc3)n2)c(=O)[nH]1 | < 500 |
| CCCc1[nH]c(=O)c(-c2csc(CS(=O)(=O)c3cccs3)n2)cc1C(=O)OCC | < 500 |
| CCCc1[nH]c(=O)c(-c2csc(CS(=O)(=O)c3ccccc3)n2)cc1C(=O)OCC | < 500 |
| CCOC(=O)c1cc(-c2csc(-c3ccncc3)n2)c(=O)[nH]c1COCc1ccccc1 | < 500 |
| CCCCNc1cc(-c2nc(-c3cc(C(=O)OCC)c(C)[nH]c3=O)cs2)ccn1 | < 500 |

| SMILES | IC50 [nM] |
| --- | --- |
| CCOC(=O)c1cc(-c2csc(-c3ccnc(NCC4CC4)c3)n2)c(=O)[nH]c1C | < 500 |
| Cc1[nH]c(=O)c(-c2csc(-c3ccnc(NCC4CC4)c3)n2)cc1C(=O)NCC1CC1 | < 500 |
| CCOC(=O)c1cc(-c2csc(-c3ccnc(NCCc4cccs4)c3)n2)c(=O)[nH]c1C | < 500 |
| Cc1[nH]c(=O)c(-c2csc(-c3ccnc(NCc4ccccn4)c3)n2)cc1C(=O)NCc1ccccn1 | < 500 |
| CCOC(=O)c1cc(-c2csc(-c3ccnc(Cl)c3)n2)c(=O)[nH]c1C | < 500 |
| CCOC(=O)c1cc(-c2csc(-c3ccnc(NCC(C)C)c3)n2)c(=O)[nH]c1C | < 500 |
| CCOC(=O)c1cc(-c2csc(-c3c(Cl)cncc3Cl)n2)c(=O)[nH]c1C | < 500 |
| CCOC(=O)c1cc(-c2csc(-c3ccnc(NC)c3)n2)c(=O)[nH]c1C(C)C | < 500 |
| CCOC(=O)c1cc(-c2csc(-c3ccnc(NCCNC(C)C)c3)n2)c(=O)[nH]c1C | < 500 |
| Cc1[nH]c(=O)c(-c2csc(-c3ccncc3)n2)cc1C(=O)OC(C)(C)C | < 500 |
| CCOC(=O)c1cc(-c2csc(CSc3ccccc3)n2)c(=O)[nH]c1C | < 500 |
| CCOC(=O)c1cc(-c2csc(CS(=O)(=O)c3cccs3)n2)c(=O)[nH]c1CC | < 500 |
| CCc1[nH]c(=O)c(-c2csc(-c3ccncc3)n2)cc1C(=O)OCCCN(CC)CC | < 500 |
| CCOC(=O)c1cc(-c2csc(-c3ccnc(CC)c3)n2)c(=O)[nH]c1C | < 500 |
| CCOC(=O)c1cc(-c2csc(NC)n2)c(=O)[nH]c1C | < 500 |
| CCN(CC)CCCOC(=O)c1cc(-c2csc(-c3ccncc3)n2)c(=O)[nH]c1C(C)C | < 500 |
| CCOC(=O)c1cc(-c2csc(CS(=O)(=O)Cc3ccc(F)cc3)n2)c(=O)[nH]c1C | < 500 |
| CCOC(=O)c1cc(-c2csc(CS(=O)(=O)c3ccccc3)n2)c(=O)[nH]c1C(C)C | < 500 |
| CCOC(=O)c1cc(-c2csc(-c3ccnc(NCc4cccnc4)c3)n2)c(=O)[nH]c1C | < 500 |
| CCOC(=O)c1cc(-c2csc(-c3ccncc3)n2)c(=O)[nH]c1C(C)C | < 500 |
| CCOC(=O)c1cc(-c2csc(CS(=O)(=O)c3ccccc3)n2)c(=O)[nH]c1C | < 500 |
| CCOC(=O)c1cc(-c2csc(-c3ccnc(N)c3)n2)c(=O)[nH]c1C | < 500 |
| CCOC(=O)c1cc(-c2csc(-c3ccnc(NC)c3)n2)c(=O)[nH]c1C | < 500 |
| CC(C)c1ccc(-c2csc(-c3ccncc3)n2)c(=O)[nH]1 | < 500 |
